Read-outs that look alike come from different tables or passages of the source.
What was measured:
PRMT5/MEP50 = molecular target: T1, PRMT5/MEP50 (Homo sapiens, UniProt O14744); assay: PRMT5 Biochemical Assay (PRMT5/MEP50 enzyme assay on peptide substrate, 3H-SAM Flashplate)
T1 construct: Expressed full-length human Flag-PRMT5/6His-MeP50 protein complex was purified; made in house; host or cells: Spodoptera frugiperda (SF9) insect cells, baculovirus (pDEST8)

Z-138 cells = assay: Z-138 Proliferation Assay (Cell Titer Glo, 5 days); assay type: cell-based; conditions: Homo sapiens, 120 h, Table A-2, 5 days, top concentration 20 μM
Excerpt: Z-138 Proliferation Assay
Z-138 suspension cells were purchased from ATCC (American Type Culture Collection, Manassas, Va.). RPMI/Glutamax medium, penicillin-streptomycin, heat inactivated fetal bovine serum were purchased from Life Technologies, Grand Island, N.Y., USA. V-bottom polypropylene 384-well plates were purchased from Greiner Bio-One, Monroe, N.C., USA. Cell culture 384-well white opaque plates were purchased from Perkin Elmer, Waltham, Mass., USA. Cell-Titer Gb® was purchased from Promega Corporation, Madison, Wis., USA. SpectraMax M5 plate reader was purchased from Molecular Devices LLC, Sunnyvale, Calif., USA.
Z-138 suspension cells were maintained in growth medium (RPMI 1640 supplemented with 10% v/v heat inactivated fetal bovine serum and cultured at 37° C. under 5% CO2. Under assay conditions, cells were incubated in assay medium (RPMI 1640 supplemented with 10% v/v heat inactivated fetal bovine serum and 100 units/mL penicillin-streptomycin) at 37° C. under 5% CO2.
For the assessment of the effect of compounds on the proliferation of the Z-138 cell line, exponentially growing cells were plated in 384-well white opaque plates at a density of 10,000 cells/ml in a final volume of 50 μl of assay medium. A compound source plate was prepared by performing triplicate nine-point 3-fold serial dilutions in DMSO, beginning at 10 mM (final top concentration of compound in the assay was 20 μM and the DMSO was 0.2%). A 100 nL aliquot from the compound stock plate was added to its respective well in the cell plate. […] After addition of compounds, assay plates were incubated for 5 days at 37° C., 5% CO2, relative humidity >90%.
Cell viability was measured by quantitation of ATP present in the cell cultures, adding 35 μl of Cell Titer Glo® reagent to the cell plates. Luminescence was read in the SpectraMax M5 microplate reader. The concentration of compound inhibiting cell viability by 50% was determined using a 4-parametric fit of the normalized dose response curves.

[1] = Table A-2, PRMT5/MEP50 4 nM, 3H-SAM 75 nM, peptide 40 nM, read-out: Biochemical IC50

T1 sequence (O14744 with tags, fused parts or gaps): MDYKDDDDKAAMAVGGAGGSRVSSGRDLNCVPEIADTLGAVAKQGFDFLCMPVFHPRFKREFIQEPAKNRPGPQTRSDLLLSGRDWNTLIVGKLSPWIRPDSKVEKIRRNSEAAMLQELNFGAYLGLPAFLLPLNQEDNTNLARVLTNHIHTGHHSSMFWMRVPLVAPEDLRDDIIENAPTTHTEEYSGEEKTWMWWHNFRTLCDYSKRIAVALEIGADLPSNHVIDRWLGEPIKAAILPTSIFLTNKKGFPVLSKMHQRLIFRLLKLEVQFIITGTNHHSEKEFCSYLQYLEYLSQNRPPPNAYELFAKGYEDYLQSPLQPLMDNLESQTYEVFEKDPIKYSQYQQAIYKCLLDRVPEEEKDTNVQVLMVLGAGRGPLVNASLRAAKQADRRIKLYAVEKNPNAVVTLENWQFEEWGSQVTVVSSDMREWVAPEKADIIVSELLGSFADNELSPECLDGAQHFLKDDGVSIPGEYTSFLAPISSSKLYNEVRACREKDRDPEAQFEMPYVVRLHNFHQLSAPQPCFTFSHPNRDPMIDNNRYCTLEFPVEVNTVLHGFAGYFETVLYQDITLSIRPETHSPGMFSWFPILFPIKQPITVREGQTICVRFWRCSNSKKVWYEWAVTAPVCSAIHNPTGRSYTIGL
T1 sequence (Q9BQA1 with tags, fused parts or gaps partner limits assumed): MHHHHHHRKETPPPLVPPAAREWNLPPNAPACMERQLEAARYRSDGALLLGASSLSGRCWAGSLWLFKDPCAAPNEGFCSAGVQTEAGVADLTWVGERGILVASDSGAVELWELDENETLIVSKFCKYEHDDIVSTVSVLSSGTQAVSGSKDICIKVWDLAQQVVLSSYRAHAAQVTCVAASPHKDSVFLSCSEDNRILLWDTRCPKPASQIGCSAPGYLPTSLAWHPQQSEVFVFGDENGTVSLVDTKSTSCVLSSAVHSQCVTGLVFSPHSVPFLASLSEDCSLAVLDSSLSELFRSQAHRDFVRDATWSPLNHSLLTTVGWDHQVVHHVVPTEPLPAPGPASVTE

Compound | IC50 (PRMT5/MEP50; Biochemical IC50) [nM] | EC50 (Z-138 cells) [nM] | IC50 (PRMT5/MEP50; [1]) [nM]
O=C(COc1cccc2cccnc12)NCC(O)CN1CCc2ccccc2C1 (centres unmarked) [Compound A6] | < 100 | 101 to 1000 | 
O=C(COc1cccc(F)c1)NCC(O)CN1CCc2ccccc2C1 (centres unmarked) [Compound A7] |  | 10000 to 50000 | 101 to 1000
N#Cc1cccc(OCC(=O)NCC(O)CN2CCc3ccccc3C2)c1 (centres unmarked) [Compound A8] |  | 10000 to 50000 | 101 to 1000
Cc1ccc(OCC(=O)NCC(O)CN2CCc3ccccc3C2)cc1 (centres unmarked) [Compound A9] |  | 10000 to 50000 | 101 to 1000
N#Cc1ccc(OCC(=O)NCC(O)CN2CCc3ccccc3C2)cc1 (centres unmarked) [Compound A11] |  | 10000 to 50000 | 101 to 1000
COc1ccc(OCC(=O)NCC(O)CN2CCc3ccccc3C2)cc1 (centres unmarked) [Compound A12] |  | 10000 to 50000 | 101 to 1000
Cc1ccccc1OCC(=O)NCC(O)CN1CCc2ccccc2C1 (centres unmarked) [Compound A15] |  | 1000 to 10000 | 101 to 1000
O=C(COc1ccccc1F)NCC(O)CN1CCc2ccccc2C1 (centres unmarked) [Compound A16] |  | 10000 to 50000 | 101 to 1000
N#Cc1ccccc1OCC(=O)NCC(O)CN1CCc2ccccc2C1 (centres unmarked) [Compound A17] |  | 10000 to 50000 | 101 to 1000
O=C(CNc1ccccc1)NCC(O)CN1CCc2ccccc2C1 (centres unmarked) [Compound A18] |  | > 20000 | 1000 to 10000
CC(Oc1ccccc1)C(=O)NCC(O)CN1CCc2ccccc2C1 (centres unmarked) [Compound A19] |  | 1000 to 10000 | < 100
COc1cccc(OCC(=O)NCC(O)CN2CCc3ccccc3C2)c1 (centres unmarked) [Compound A20] |  | 1000 to 10000 | < 100
CC(=O)Nc1ccc(OCC(=O)NCC(O)CN2CCc3ccccc3C2)cc1 (centres unmarked) [Compound A21] |  | > 20000 | 101 to 1000
COc1ccccc1OCC(=O)NCC(O)CN1CCc2ccccc2C1 (centres unmarked) [Compound A22] |  | 1000 to 10000 | < 100
Cn1ncc2ccc(OCC(=O)NCC(O)CN3CCc4ccccc4C3)cc21 (centres unmarked) [Compound A23] |  | 1000 to 10000 | < 100
Cc1cccc(OCC(=O)NCC(O)CN2CCc3ccccc3C2)c1 (centres unmarked) [Compound A26] |  | 1000 to 10000 | < 100
CN(C)c1cccc(OCC(=O)NCC(O)CN2CCc3ccccc3C2)c1 (centres unmarked) [Compound A27] |  | 1000 to 10000 | < 100
CS(=O)(=O)Nc1cccc(OCC(=O)NCC(O)CN2CCc3ccccc3C2)c1 (centres unmarked) [Compound A28] |  | 1000 to 10000 | < 100
NC(=O)c1ccccc1OCC(=O)NCC(O)CN1CCc2ccccc2C1 (centres unmarked) [Compound A29] |  | > 20000 | 101 to 1000
CC(=O)Nc1cccc(OCC(=O)NCC(O)CN2CCc3ccccc3C2)c1 (centres unmarked) [Compound A31] |  | 10000 to 50000 | 1000 to 10000
O=C(COc1ccccc1)NC[C@H](O)CN1CCc2ccccc2C1 [Compound A32] |  | 10000 to 50000 | 101 to 1000

Compound | IC50 (PRMT5/MEP50; Biochemical IC50) [nM] | EC50 (Z-138 cells) [nM] | IC50 (PRMT5/MEP50; [1]) [nM]
NC(=O)c1cccc(OCC(=O)NCC(O)CN2CCc3ccccc3C2)c1 (centres unmarked) [Compound A34] |  | 10000 to 50000 | 101 to 1000
CN(C)c1ccc(OCC(=O)NCC(O)CN2CCc3ccccc3C2)cc1 (centres unmarked) [Compound A35] |  | 10000 to 50000 | 101 to 1000
CC(=O)Nc1ccccc1OCC(=O)NCC(O)CN1CCc2ccccc2C1 (centres unmarked) [Compound A36] |  | > 20000 | 101 to 1000
CS(=O)(=O)c1ccccc1OCC(=O)NCC(O)CN1CCc2ccccc2C1 (centres unmarked) [Compound A37] |  | 1000 to 10000 | < 100
CN(C)c1ccccc1OCC(=O)NCC(O)CN1CCc2ccccc2C1 (centres unmarked) [Compound A38] |  | 1000 to 10000 | < 100
CC(Oc1cccc2cccnc12)C(=O)NCC(O)CN1CCc2ccccc2C1 (centres unmarked) [Compound A39] |  | 101 to 1000 | < 100
O=C(COc1ccccc1C1CCCCC1)NCC(O)CN1CCc2ccccc2C1 (centres unmarked) [Compound A40] |  | 1000 to 10000 | < 100
CS(=O)(=O)Nc1ccc(OCC(=O)NCC(O)CN2CCc3ccccc3C2)cc1 (centres unmarked) [Compound A42] |  | > 20000 | 101 to 1000
CC(C)(Oc1cccc2cccnc12)C(=O)NCC(O)CN1CCc2ccccc2C1 (centres unmarked) [Compound A43] |  | 1000 to 10000 | < 100
O=C(COc1cccc2cccnc12)NC[C@H](O)CN1CCc2ccccc2C1 [Compound A44] | 101 to 1000 | 10000 to 50000 | 
O=C(COc1cccc2cccnc12)NC[C@@H](O)CN1CCc2ccccc2C1 [Compound A45] | < 100 | 101 to 1000 | 
Cn1cnc2cc(OCC(=O)NCC(O)CN3CCc4ccccc4C3)ccc21 (centres unmarked) [Compound A46] |  | 10000 to 50000 | 101 to 1000
CS(=O)(=O)c1cccc(OCC(=O)NCC(O)CN2CCc3ccccc3C2)c1 (centres unmarked) [Compound A47] |  | 1000 to 10000 | < 100
O=C(COc1cccc2ccc(N3CCOCC3)nc12)NCC(O)CN1CCc2ccccc2C1 (centres unmarked) [Compound A48] |  | 10000 to 50000 | < 100
O=C(COc1ccccc1N1CCOCC1)NCC(O)CN1CCc2ccccc2C1 (centres unmarked) [Compound A49] |  | 1000 to 10000 | < 100
O=C(COc1ccccc1-c1cc[nH]n1)NCC(O)CN1CCc2ccccc2C1 (centres unmarked) [Compound A50] |  | 1000 to 10000 | < 100
CS(=O)(=O)Nc1ccccc1OCC(=O)NCC(O)CN1CCc2ccccc2C1 (centres unmarked) [Compound A53] |  | 1000 to 10000 | < 100
O=C(COc1cccc2c1CCCC2)NCC(O)CN1CCc2ccccc2C1 (centres unmarked) [Compound A64] |  | 1000 to 10000 | < 100
NS(=O)(=O)c1ccccc1OCC(=O)NCC(O)CN1CCc2ccccc2C1 (centres unmarked) [Compound A65] |  | 1000 to 10000 | < 100
O=C(COc1cccc2ccccc12)NCC(O)CN1CCc2ccccc2C1 (centres unmarked) [Compound A66] |  | 1000 to 10000 | < 100
O=C(COc1ccccc1-c1cc[nH]n1)NC[C@@H](O)CN1CCc2ccccc2C1 [Compound A67] |  | 1000 to 10000 | < 100

Compound | IC50 (PRMT5/MEP50; Biochemical IC50) [nM] | EC50 (Z-138 cells) [nM] | IC50 (PRMT5/MEP50; [1]) [nM]
O=C(COc1ccccc1-c1cc[nH]n1)NC[C@H](O)CN1CCc2ccccc2C1 [Compound A68] |  | > 20000 | < 100
O=C(COc1ccc2ncn(C3CCNCC3)c2c1)NCC(O)CN1CCc2ccccc2C1 (centres unmarked) [Compound A70] |  | > 20000 | < 100
CN1CCC(n2cnc3ccc(OCC(=O)NCC(O)CN4CCc5ccccc5C4)cc32)CC1 (centres unmarked) [Compound A71] |  | > 20000 | < 100
C[C@@H](Oc1cccc2cccnc12)C(=O)NC[C@H](O)CN1CCc2ccccc2C1 [Compound A73] |  | 101 to 1000 | < 100
C[C@@H](Oc1cccc2cccnc12)C(=O)NC[C@@H](O)CN1CCc2ccccc2C1 [Compound A74] |  | 1000 to 10000 | < 100
CN1CCC(n2ncc3cc(OCC(=O)NCC(O)CN4CCc5ccccc5C4)ccc32)C1 (centres unmarked) [Compound A96] |  | 10000 to 50000 | < 100
COc1ccc2cccc(OCC(=O)NC[C@H](O)CN3CCc4ccccc4C3)c2n1 [Compound A97] |  | 1000 to 10000 | 101 to 1000
COc1ccc2cccc(OCC(=O)NC[C@@H](O)CN3CCc4ccccc4C3)c2n1 [Compound A98] |  | 1000 to 10000 | < 100
CN1CCc2c(cccc2OCC(=O)NCC(O)CN2CCc3ccccc3C2)C1 (centres unmarked) [Compound A99] |  | 1000 to 10000 | < 100
O=C(COc1cccc2c1OCCO2)NCC(O)CN1CCc2ccccc2C1 (centres unmarked) [Compound A100] |  | 1000 to 10000 | < 100
CC(=O)N1CCc2c(cccc2OCC(=O)NCC(O)CN2CCc3ccccc3C2)C1 (centres unmarked) [Compound A101] |  | 1000 to 10000 | < 100
CS(=O)(=O)N1CCc2c(cccc2OCC(=O)NCC(O)CN2CCc3ccccc3C2)C1 (centres unmarked) [Compound A102] |  | 1000 to 10000 | < 100
O=C(COc1ccccc1C1CCNCC1)NCC(O)CN1CCc2ccccc2C1 (centres unmarked) [Compound A103] |  | > 20000 | < 100
CN(C)c1ccc2cccc(OCC(=O)NC[C@H](O)CN3CCc4ccccc4C3)c2n1 [Compound A104] |  | > 20000 | 101 to 1000
CN(C)c1ccc2cccc(OCC(=O)NC[C@@H](O)CN3CCc4ccccc4C3)c2n1 [Compound A105] |  | 1000 to 10000 | < 100
CS(=O)(=O)N1CCN(c2ccccc2OCC(=O)NCC(O)CN2CCc3ccccc3C2)CC1 (centres unmarked) [Compound A106] |  | > 20000 | 101 to 1000
O=C(COc1ccccc1S(=O)(=O)N1CCNCC1)NCC(O)CN1CCc2ccccc2C1 (centres unmarked) [Compound A107] |  | 1000 to 10000 | < 100
CN1CCN(S(=O)(=O)c2ccccc2OCC(=O)NCC(O)CN2CCc3ccccc3C2)CC1 (centres unmarked) [Compound A108] |  | 10000 to 50000 | < 100
CN(C)S(=O)(=O)c1ccccc1OCC(=O)NCC(O)CN1CCc2ccccc2C1 (centres unmarked) [Compound A109] |  | 101 to 1000 | < 100
